Earlier results on 2 compounds are cited in US6972133B1, “Degradable animal chewing article possessing enhanced safety, durability and mouth-feel” (Seefar Technologies, Inc., priority 1999, dated 2005).

Molecules are shown by their SMILES.

In data set [1] the test system is fungi (including yeast) and algae. The conditions noted are these: most active against fungi (including yeast) and algae.

Take `Oc1cc(Cl)ccc1Oc1ccc(Cl)cc1Cl` [triclosan, 2,4,4″-trichloro-2-hydroxydiphenylether]: the LD50 oral toxicity in the data set with dogs is listed as > 5000 mg/kg. In addition, the “solubility in dilute alkali solution” value (dilute alkali solution) was “sparingly soluble”. For the same compound, the “solubility in ethanol” value (ethanol) is on record as “soluble”. The “solubility in water” value (water, unmodified triclosan) is “insoluble”.

For the compound `Cc1ccc(S(=O)(=O)C(I)I)cc1` [DIMTS, diiodomethyl-p-tolylsulphone], the anti-microbial activity result in data set [1] is reported as “broad spectrum of anti-microbial activity”.
